Among the data in patent US20240246941A1, “SUBSTITUTED 4-(3-AMINOPROP-1-YL)AMINOQUINOLINE ANALOGS AS MODULATORS OF MELANOMA-ASSOCIATED ANTIGEN 11 UBIQUITIN LIGASE” (ST. JUDE CHILDREN'S RESEARCH HOSPITAL, INC., priority 2020, published 2024) are IC50 values, retold here.

Structures are written as SMILES.

One experiment deals with interaction between GST-MAGEA11 MHD and FAM-PCF11_4 peptide (MAGE-A11:PCF11) (Homo sapiens (Human), UniProt P43364). The experiment in a line: TR-FRET dose response competition assay for disruption of MAGE-A11:PCF11 binding. Conditions: Dose response TR-FRET screening of nine scaffold groups against MAGE-A11:PCF11; read-out: consensus IC50. The method, boiled down: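 Competition TR-FRET at room temperature in 50 mM Tris pH 7.5, 20 mM MgCl2, 0.1 mg/ml BSA, 1 mM DTT: final 5 nM GST-MAGEA11 MHD, 5 nM Tb-anti-GST, 200 nM FAM-PCF11_4, 90 min. Ratio 520/490 nm converted to % inhibition; IC50 from sigmoidal fit.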
Sequence of interaction between GST-MAGEA11 MHD and FAM-PCF11_4 peptide (MAGE-A11:PCF11) (P43364 218-429): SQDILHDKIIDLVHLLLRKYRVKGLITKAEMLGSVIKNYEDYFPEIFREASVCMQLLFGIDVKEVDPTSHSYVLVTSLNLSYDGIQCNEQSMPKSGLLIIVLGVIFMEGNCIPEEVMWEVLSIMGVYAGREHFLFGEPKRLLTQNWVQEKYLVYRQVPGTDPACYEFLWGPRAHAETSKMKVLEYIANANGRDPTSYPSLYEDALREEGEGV
For the compound `Fc1cccc(CNCCCNc2ccnc3cc(Cl)ccc23)c1` [SJ000523061-1], the IC50 stood at 69.9 µM. Turning to `O=S(=O)(c1ccc(Cl)cc1)c1nc(-c2ccccc2Br)oc1N1CCOCC1` [SJ000184129-1], the IC50 came to 69.9 µM. For the compound `CCCn1c(-c2ccc(C(=O)O)cc2)nc2c1c(=O)[nH]c(=O)n2Cc1ccccc1` [SJ000420129-1], the IC50 stood at 69.9 µM. As to `Cc1ccccc1-c1nc(S(=O)(=O)c2ccc(Cl)cc2)c(N2CC(C)OC(C)C2)o1` (stereo not drawn) [SJ000329051-1], the IC50 amounted to 69.9 µM. For `CCn1c2ccccc2c2cc(CNCC(C)O)ccc21` (stereo not drawn) [SJ000505727-1], the IC50 came to 69.9 µM. Consider `CC(C)Cn1c(-c2cc([N+](=O)[O-])ccc2Cl)nc2c1c(=O)[nH]c(=O)n2Cc1ccccc1` [SJ000390112-1], for which the IC50 was 69.9 µM. Regarding `CCCCn1c(=O)[nH]c(=O)c2c1nc(-c1ccc(C(F)(F)F)cc1)n2C` [SJ000378916-1], the IC50 was determined as 69.9 µM.

On to `COc1cc(NCc2ccc3nc(N)nc(N)c3c2C)cc(OC)c1OC` [SJ000574313-7], for which the 50% inhibitory concentration (IC50) was 9.46 µM. Still for that read-out and setting: as for `COc1ccc(F)cc1CNCCCNc1ccnc2cc(Oc3ccc(C(C)(C)C)cc3)ccc12` [SJ000311237-1], the figure is 6.29 µM; as for `CCCn1c(-c2cc(Br)ccc2F)nc2c1c(=O)[nH]c(=O)n2Cc1ccccc1` [SJ000437843-1], 69.9 µM. `COc1ccc(-c2ccc3c(NCCCNCc4cc(F)ccc4OC)ccnc3c2)cc1` [SJ000311297-1]: the IC50 was 69.9 µM.

On to `COc1cccc(CNCCCNc2ccnc3cc(C4CCCCC4)ccc23)c1O` [SJ000311263-1], for which the IC50 came to 32.4 µM. For the compound `COc1cccc(CNCCCNc2ccnc3cc(CC4CCCCC4)ccc23)c1O` [SJ000311251-1], the IC50 amounted to 29.2 µM. Turning to `COc1ccc(-c2cc3ncn(CC(=O)NCc4ccccc4C)c(=O)c3s2)cc1` [SJ000455215-1], the IC50 worked out at 69.9 µM. Regarding `CC1CCCC(C)C1NC1=C(Cl)C(=O)c2ccccc2C1=O` (stereo not drawn) [SJ000299694-1], the IC50 amounted to 69.9 µM.

`CCn1c2ccccc2c2cc(CN3CCN(S(=O)(=O)CC)CC3)ccc21` [SJ000168321-1]: the IC50 worked out at 69.9 µM.

As to `CCn1c2ccccc2c2cc(CN3CCc4nnc(C(C)NC(=O)CCOC)n4CC3)ccc21` (stereo not drawn) [SJ000307915-1], the IC50 worked out at 69.9 µM. Same read-out and setting: in the case of `CCCN1C(=O)c2ccccc2NC1c1ccc(Cl)cc1` (stereo not drawn) [SJ000550608-1] it was 69.9 µM. Still for that read-out and setting: in the case of `CCCn1c(=O)[nH]c(=O)c2c1nc(-c1cccc(F)c1)n2CCOC` [SJ000378928-1] it was 69.9 µM; in that of `COc1cccc(-c2nc(S(=O)(=O)c3ccc(Cl)cc3)c(N3CCOCC3)o2)c1` [SJ000038124-1], 7.43 µM.

In the case of `CCOc1ccc(-c2nc(C#N)c(N3CC(C)OC(C)C3)o2)cc1` (stereo not drawn) [SJ000478356-1], the IC50 is 69.9 µM. Same read-out and setting: in the case of `COCCCn1c(-c2ccc(C#N)cc2)nc2c1c(=O)[nH]c(=O)n2Cc1ccccc1` [SJ000420075-1] it was 69.9 µM. `COc1ccccc1CNC(=O)Cn1cnc2cc(-c3ccccc3)sc2c1=O` [SJ000452125-1]: the IC50 turned out to be 69.9 µM.

In the case of `O=C1C(Cl)=C(Nc2ccc(Br)cc2)C(=O)c2ccccc21` [SJ000024921-1], the IC50 came out at 69.9 µM. Same read-out and setting: in the case of `COc1ccccc1Oc1ccc2c(NCCCNCc3cccc(OC)c3O)ccnc2c1` [SJ000311211-1] it was 69.9 µM; in that of `COP(=O)(OC)c1nc(-c2ccc(C)cc2)oc1N1CCOCC1` [SJ000090156-1], 69.9 µM; in that of `O=C1c2ccccc2NC(c2ccc([N+](=O)[O-])cc2)N1Cc1ccccc1` (stereo not drawn) [SJ000051049-1], 69.9 µM. The same measure, in the same setting: in the case of `COc1ccc(OC(F)(F)F)cc1CNCCCNc1ccnc2cc(C(F)(F)F)ccc12` [SJ000521063-1] it was 69.9 µM; in that of `CCC(CC)c1ccc2c(NCCCNCc3cc(F)ccc3OC)ccnc2c1` [SJ000311269-1], 43 µM.

With `Cc1ccccc1-c1nc(S(=O)(=O)c2ccc(F)cc2)c(N2CC(C)OC(C)C2)o1` (stereo not drawn) [SJ000329031-1], the 50% inhibitory concentration (IC50) is 69.9 µM. For the compound `Fc1ccc(Oc2ccc3c(NCCCNCc4cccc5c4OCO5)ccnc3c2)cc1` [SJ000311224-1], the IC50 is 59.6 µM.

Turning to `O=C(NCC(O)CO)c1ccc2[nH]c3ccccc3c2c1` (stereo not drawn) [SJ000053810-1], the IC50 is 69.9 µM. `C=CCSc1nc2cc(-c3ccccc3)sc2c(=O)n1CCN1CCOCC1` [SJ000453564-1]: the concentration for half-maximal inhibition (IC50) came out at 69.9 µM. On the same count and under the same terms, in the case of `COc1cccc(CNCCCNc2ccnc3cc(-c4ccccc4)ccc23)c1O` [SJ000311283-1] it was 24.1 µM; in that of `CCN(CC)C(=O)Cn1cnc2cc(-c3ccccc3)sc2c1=O` [SJ000425666-1], 69.9 µM; in that of `CCCN1C(=O)c2ccccc2NC1c1ccc(OC)c(COc2ccc([N+](=O)[O-])cc2)c1` (stereo not drawn) [SJ000288430-1], 69.9 µM.

For `CS(=O)(=O)c1ccc(C2=C(c3ccccc3)C(=O)OC2)cc1` [SJ000285362-5], the IC50 came out at 67.6 µM. The same measure, in the same setting: in the case of `CCCn1c(=O)c2nc(-c3ccc(OCC(=O)NCCN)cc3)[nH]c2n(CCC)c1=O` [SJ000288288-2] it was 69.9 µM; in that of `COC(=O)CSc1nc2cc(-c3ccccc3)sc2c(=O)n1CCN1CCOCC1` [SJ000451551-1], 69.9 µM; in that of `COc1cccc(CNCCCNc2ccnc3cc(-c4ccc(C(F)(F)F)cc4)ccc23)c1O` [SJ000311279-1], 9.52 µM. Regarding `COc1ccc(C2Nc3ccccc3C(=O)N2Cc2ccc(F)cc2)cc1` (stereo not drawn) [SJ000510742-1], the IC50 turned out to be 69.9 µM.

As to `Cn1c(=O)c2nc(-c3ccc(S(=O)(=O)O)cc3)[nH]c2n(C)c1=O` [SJ000287642-4], the IC50 was found to be 21.8 µM. Still for that read-out and setting: as for `CCn1c2ccccc2c2cc(CN3CCN(Cc4cc(OC)ccc4O)CC3)ccc21` [SJ000111875-2], the figure is 69.9 µM. Regarding `N#CCCn1cnc2cc(-c3ccc(F)cc3)sc2c1=O` [SJ000458551-1], the IC50 was 69.9 µM. The same measure, in the same setting: in the case of `N#Cc1nc(-c2ccc(F)cc2)oc1N1CCOCC1` [SJ000011204-1] it was 69.9 µM; in that of `Cc1ccc(S(=O)(=O)c2nc(-c3ccccc3C)oc2N2CC(C)OC(C)C2)cc1` (stereo not drawn) [SJ000329041-1], 11.8 µM; in that of `CCn1c2ccccc2c2cc(CN3CCC(N4CCN(c5ccccc5)CC4)CC3)ccc21` [SJ000112860-1], 69.9 µM. On the same count and under the same terms, as for `CCCCCOc1ccc(N(C(C)=O)C2=C(Cl)C(=O)c3ccccc3C2=O)cc1` [SJ000032724-1], the figure is 28.3 µM; as for `CCc1ccc(C2=C(c3ccc([N+](=O)[O-])cc3)C(=O)OC2)cc1` [SJ000368127-1], 69.9 µM. Same read-out and setting: in the case of `COc1ccc(F)cc1CNCCCNc1ccnc2cc(Cl)ccc12` [SJ000000500-3] it was 69.9 µM.

Still in this experiment, the particulars now being: Table 5, dose response TR-FRET screening of 59 quinoline compounds against MAGE-A11:PCF11; read-out: TR-FRET IC50.
As to `c1coc(CNCCCNc2ccnc3cc(C4CCCCC4)ccc23)c1` [SJ000311262-1], the half-maximal inhibitory concentration (IC50) is greater than 70 µM. For `CCC(C)CN(CCCCNc1ccnc2cc(Cl)ccc12)Cc1ccccc1` (stereo not drawn) [SJ000361208-2], the IC50 was greater than 70 µM. Take `CCCN(CCCNc1ccnc2cc(C(F)(F)F)ccc12)Cc1ccccc1OC` [SJ000523072-1]: the IC50 is greater than 70 µM. Turning to `c1ccc(Cc2ccc3c(NCCCNCc4ccco4)ccnc3c2)cc1` [SJ000311306-2], the IC50 stood at 32.2 µM. Turning to `FC(F)(F)c1ccc2c(NCCCNCc3cc(Br)cs3)ccnc2c1` [SJ000521056-1], the IC50 is greater than 70 µM. Same read-out and setting: in the case of `Cc1ccc(F)cc1CN(CCCCNc1ccnc2cc(Cl)ccc12)Cc1ccccc1` [SJ000520449-1] it was greater than 70 µM; in that of `Clc1cccc(Cl)c1Cc1ccc2c(NCCCNCc3ccco3)ccnc2c1` [SJ000311314-1], 38.4 µM. Take `Cc1ccc(C)c(CN(CCCCNc2ccnc3cc(Cl)ccc23)Cc2ccccc2)c1` [SJ000361209-2]: the IC50 is greater than 70 µM. The same measure, in the same setting: as for `FC(F)(F)c1ccc2c(NCCCNCc3ccc[nH]3)ccnc2c1` [SJ000361105-1], the figure is 33 µM; as for `C=C1C=C(C)C=C(C)C(CN(CCCNc2ccnc3cc(Cl)ccc23)Cc2ccccc2)=C1` [SJ000361169-2], greater than 70 µM.

Staying with this experiment, now noted: Table 6, 4-aminoquinoline compounds; read-out: TR-FRET, IC50.
For `c1ccc(-c2ccc3c(NCCCNCc4cccc5c4OCO5)ccnc3c2)cc1` [SJ000311284-01], the IC50 is 20.6 µM.

The experiment is the same for the next values; noted with them: Table 8, representative compounds; read-out: TR-FRET IC50.
As to `N#Cc1cccc(CNCCCNc2ccnc3cc(Cl)ccc23)c1` [SJ000523063], the IC50 was 69.9 µM. As for `COc1cccc(CNCCCNc2ccnc3cc(-c4ccc(C(C)(C)C)cc4)ccc23)c1O` [SJ000311287], the IC50 was found to be 4.67 µM. With `COc1ccccc1Oc1ccc2c(NCCCNCc3cccc4c3OCO4)ccnc2c1` [SJ000311212], the concentration for half-maximal inhibition (IC50) amounted to 69.9 µM. Same read-out and setting: in the case of `FC(F)(F)Oc1cccc(CNCCCNc2ccnc3cc(C(F)(F)F)ccc23)c1` [SJ000521045] it was 69.9 µM; in that of `Clc1ccc2c(NCCCNCc3ccc4ccccc4c3)ccnc2c1` [SJ000523065], 69.9 µM; in that of `COc1ccc(F)cc1CNCCCNc1ccnc2cc(Cc3ccc(F)cc3Cl)ccc12` [SJ000311325], 17.6 µM.

For `COc1cccc(CNCCCNc2ccnc3cc(Cc4cc(C)cc(C)c4)ccc23)c1O` [SJ000311319], the IC50 was 23.6 µM. As for `FC(F)(F)Oc1ccc(CNCCCNc2ccnc3cc(Cl)ccc23)cc1` [SJ000521025], the IC50 was found to be 69.9 µM. The same measure, in the same setting: in the case of `COc1cccc(CNCCCNc2ccnc3cc(-c4ccccc4)ccc23)c1O` [SJ000311283] it was 24.1 µM; in that of `COc1ccc(F)cc1CNCCCNc1ccnc2cc(Oc3ccc(C(C)(C)C)cc3)ccc12` [SJ000311237], 6.29 µM; in that of `COc1ccc(F)cc1CNCCCNc1ccnc2cc(Oc3ccc(F)cc3)ccc12` [SJ000311225], 69.9 µM. The same measure, in the same setting: as for `COc1ccc(CNCCCNc2ccnc3cc(Cl)ccc23)cc1` [SJ000523059], the figure is 69.9 µM; as for `c1ccc(-c2ccc3c(NCCCNCc4cccc5c4OCO5)ccnc3c2)cc1` [SJ000311284-01], 22.2 µM.

Staying with this experiment, now noted: read-out: IC50 by TR-FRET for disrupting MAGE-A11:PCF11 interaction.
For `c1ccc(-c2ccc3c(NCCCNCc4cccc5c4OCO5)ccnc3c2)cc1` [SJ000311284-01], the half-maximal inhibitory concentration (IC50) came out at 20.6 µM.

What is called IC50 is the midpoint of a concentration-inhibition curve.
